{"source": "patent US20240148664A1", "about": "“LIPID AND COMPOSITION” (SOGO PHARMACEUTICAL CO., LTD., priority 2021, published 2024)", "key": {"HEK293T cells": {"test_system": "HEK293T cells", "experiment": "Evaluation of protein expression effect (luciferase luminescence), Cell experiment 2", "assay_type": "cell-based", "conditions": "lipid nanoparticle containing mRNA, 100 ng mRNA/20 μL per well, 24 hours, amount of luminescence as index", "description": "(§1) For lipids (Ia), (Ib), and (Ie) of Examples 1, 2, and 5, a cell experiment was carried out by using HEK293T cells and NIH3T3 cells in order to evaluate lipid nanoparticles encapsulating an mRNA. By transfecting the cells with lipid nanoparticles and measuring the amount of a predetermined protein produced, the performance of the lipid nanoparticles used can be evaluated. Hereinafter, the procedure of the cell experiment will be shown.\n(§2) A. Seeding of Cells • (i) A liquid medium (DMEM High glucose, FBS+, P/S+) was temperature-controlled in an incubator set at 37° C. • (ii) A cryotube containing cells was taken out from a −80° C. freezer and thawed at once in the incubator set at 37° C. • (iii) A test tube was subjected to a centrifuge to precipitate the cells. • (iv) The supernatant was aspirated, and the liquid medium was added and gently tapped to disperse the cells. • (v) A small amount of the cells-dispersed liquid medium was collected, and the number of cells was observed and counted under a microscope. • (vi) The cells were seeded in three 24-well black plates such that the number of cells was 1×10^4 cells per well. The 24-well black plates were placed in an incubator, and the cells were cultured for 24 hours under conditions of 37° C. and 5% CO2.\n(§3) B. Transfection • (i) A lipid nanoparticle-containing solution including an mRNA was concentrated such that the mRNA concentration was 100 ng/20 μL (=0.005 μg/μL). • (ii) A liquid medium (DMEM High glucose, FBS-, P/S-) and FBS were warmed to 37° C., required amounts of the liquid medium and FBS were mixed (FBS concentration of liquid medium at this time: 12.5%), and the prepared liquid medium was filter-sterilized through a 0.22 μm filter. • (iii) The liquid medium supernatant in the 24-well black plates in which the cells were cultured was aspirated and 80 μL per well of the prepared liquid medium was added. • (iv) 20 μL per well of RFW and the lipid nanoparticle-containing solution adjusted to the above concentration was added. • (v) The 24-well black plates were placed in an incubator, and the cells were cultured for 24 hours under conditions of 37° C. and 5% CO2.\n(§4) C. Evaluation of Protein Expression Effect (Detection of Gaussia Luciferase (GLuc))\n(§5) Evaluation of the protein expression effect was carried out by using Gaussia Luciferase Assay Kit manufactured by Thermo Scientific. • (i) The cells cultured in B. (v) above were taken out from the incubator and allowed to stand at room temperature. • (ii) 20 μL of the supernatant in the plates was collected and added to a fresh 96-well white plate. • (iii) 100× Coelenterazine and Gaussia Glow Assay Buffer attached to the kit were returned to room temperature and mixed at 1:100 to prepare a solution. The prepared solution was added to the supernatant at 50 μL per well by using a multipipette. • (iv) The plate was shielded from light with aluminum foil, allowed to stand for 10 minutes, and then measured for the amount of luminescence with a plate reader (manufactured by TECAN, Infinite M200) (measurement time: 2 seconds), and the protein expression level was calculated by using the resulting amount of luminescence as an index."}, "NIH3T3 cells": {"test_system": "NIH3T3 cells", "experiment": "Evaluation of protein expression effect (luciferase luminescence), Cell experiment 2", "assay_type": "cell-based", "conditions": "lipid nanoparticle containing mRNA, 100 ng mRNA/20 μL per well, 24 hours, amount of luminescence as index", "description": "as §1, §2, §3, §4, §5"}, "[1]": {"test_system": "HEK293T cells and NIH3T3 cells", "experiment": "Evaluation of toxicity (CellTiter-Fluor Cell Viability Assay, CTF)", "assay_type": "cell-based", "conditions": "lipid nanoparticle containing mRNA; number of surviving cells relative to cells without lipid nanoparticle set at 1; one rating per lipid, printed on the HEK293T line", "description": "as §1\nas §2, with “CO2. […]” for “CO2.”\nD. Evaluation of Toxicity (CellTiter-Fluor (Registered Trademark) Cell Viability Assay) • (i) The CellTiter-Fluor (registered trademark) Cell Viability (CTF) Assay Reagent was completely thawed in a 37° C. water bath. • (ii) GF-AFC Substrate was uniformly mixed by using a vortex mixer. • (iii) The required amounts of Buffer and GF-AFC Substrate attached to the CTF Assay Reagent (Kit) were mixed at a mixing ratio of 10 mL:10 μL. • (iv) 100 μL per well of the mixed CTF Reagent mixture was added to a 24-well black plate containing the cells cultured in B. (v) above, and the plate was quickly shielded from light with aluminum foil, and then shaken on a plate shaker for 30 seconds. • (v) The plate was placed in an incubator, […], and the cells were cultured for 30 minutes under conditions of 37° C. and 5% CO2. • (vi) The fluorescence intensity was measured with a plate reader (excitation wavelength of 380 nm, fluorescence wavelength of 505 nm). Based on the obtained measurement results, the number of surviving cells was calculated with the fluorescence intensity of cells to which no lipid nanoparticle was added set at 1. […]"}, "[2]": {"experiment": "siRNA / mRNA encapsulation rate of lipid nanoparticle (RiboGreen)", "assay_type": "physicochemical", "conditions": "mRNA encapsulation rate of lipid nanoparticle (Table 3)", "description": "The siRNA encapsulation rate and the mRNA encapsulation rate of the lipid nanoparticle were obtained as follows. First, a surfactant (Sigma-Aldrich, Triton (registered trademark), X-100 (reducing type)) was added to the lipid nanoparticle-containing solution to disrupt the lipid nanoparticle to release the encapsulated siRNA or mRNA. The amounts of the lipid nanoparticle-containing solution and the surfactant were adjusted such that the siRNA or the mRNA was 2 pmol and the surfactant was 1% in 40 μL of the solution after adding the surfactant to the lipid nanoparticle-containing solution. Next, the RiboGreen reagent (reagent that reacts with siRNA to emit fluorescence, manufactured by Thermo Fisher Scientific, Quant-iT (registered trademark) RiboGreen (registered trademark) RNA Assay Kit) was added to the solution, and the fluorescence intensity was measured under conditions of an excitation wavelength of 480 nm and a fluorescence wavelength of 520 nm with a fluorescence intensity meter (manufactured by TECAN, Infinite M200). Specifically, 75 μL of the RiboGreen reagent diluted to 1/2000 was added to a diluted solution obtained by adding 65 μL of citrate buffer to 10 μL of the solution, and the fluorescence intensity was measured. This makes it possible to relatively measure the total amount of the siRNA or the total amount of the mRNA present in the solution.\nSubsequently, the RiboGreen reagent was added to the lipid nanoparticle-containing solution without adding a surfactant, and the fluorescence intensity was measured in the same manner with a fluorescence intensity meter. By not adding a surfactant, it is possible to relatively measure the amount of the siRNA or the mRNA free in the solution without being encapsulated in the lipid nanoparticle.\nThen, the fluorescence intensity obtained from the solution to which the surfactant was added obtained as described above was fluorescence intensity a, and the fluorescence intensity thus obtained from the solution to which no surfactant was added obtained as described above was fluorescence intensity b, and according to the expression (a−b)/a×100, the siRNA encapsulation rate (%) or the mRNA encapsulation rate (%) of the lipid nanoparticle was obtained. Each of fluorescence intensity a and fluorescence intensity b is a value obtained by subtracting a blank from the arithmetic average value of the results of three measurements for each solution. The blank was measured by carrying out the same operation on a well containing water containing no cell or lipid nanoparticle."}, "[3]": {"experiment": "Measurement of particle size, polydispersity index and zeta potential of lipid nanoparticle (Zetasizer)", "assay_type": "physicochemical", "description": "30 μL of each of the dialyzed lipid nanoparticle-containing solutions obtained by the above operation was measured out, 800 μL of ultrapure water was added to dilute the lipid nanoparticle-containing solution, and the diluted preparation solution was used to measure the particle size (nm) and the polydispersity index (PDI) by using a Zetasizer (manufactured by Malvern Panalytical, Zetasizer nano Ultra). The particle size was evaluated by Z-average in ultrapure water. The zeta potential was measured by using pH 7.4 Tris-HCl as a dilute solution."}}, "data": [{"smiles": "CCCCCCCCCCCOC(=O)CCCCCN(CCO)CCCCCCCC(=O)OC(CCCCCCCC)CCCCCCCC", "note": "[Reference Example 1, reference compound]", "values": [{"measurement": "Protein expression level", "setting": "HEK293T cells", "value": "320,000"}, {"measurement": "Protein expression level", "setting": "NIH3T3 cells", "value": "7,000"}, {"measurement": "CTF Assay", "setting": "[1]", "value": "⊚ (When the number of surviving cells was more than 0.80 and 1.00 or less, a rating of double-circle (excellent) was given)"}, {"measurement": "Encapsulation rate (%)", "setting": "[2]", "value": 93, "unit": "%"}, {"measurement": "PDI", "setting": "[3]; lipid nanoparticle containing mRNA (Table 3)", "value": 0.232}, {"measurement": "Zeta potential (mV)", "setting": "[3]; lipid nanoparticle containing mRNA (Table 3), pH 7.4 Tris-HCl", "value": "−4.3", "unit": "mV"}, {"measurement": "Particle size (nm)", "setting": "[3]; lipid nanoparticle containing mRNA, main lipid/DPPC/cholesterol=45/10/45 (r1: r1/DSPC/cholesterol/PEG2000-DMG=50/10/38.5/1.5)", "value": 64.4, "unit": "nm"}]}]}
